From patent publication US11384060B2, “Amide compounds and use thereof” (ALPHALA CO., LTD., priority 2017, dated 2022) come the findings set out here.

By IC50 is commonly meant the concentration that inhibits the measured activity by half.

One test addresses T1, glucagon receptor (GCGR) (Homo sapiens, UniProt P47871).
T1 construct: expressed in transfected cells; host or cells: CHO-K1 cells overexpressing GCGR (membrane fractions)
The test is described as follows: I125-glucagon binding assay (competition, GCGR membrane fractions). As for the experimental part: I^125-Glucagon Binding Assay
The binding affinity of each compound was evaluated by a competition assay with I^125-glucagon. GCGR membrane fractions were obtained from GCGR overexpressed CHO-K1 cells as a stock of 1 mg/ml concentration. To evaluate the IC50 of compounds binding to GCGR, GCGR membrane fractions were treated with compounds with a serial dilution. The membrane fractions were diluted to 7.5 microgram per well in 70 microliter assay buffer contained 50 mM Tris pH 7.4 and 0.5% (w/v) bovine serum albumin and added into 96 wells plate. The membrane fractions were then mixed with 10 microliter diluted compounds. After 5 minutes pre-incubation, 20 microliter I^125 labeled glucagon (Perkin Elmer) was added into each well at the final concentration of 0.0625 nM. The assay mixtures were incubated at 25° C. for 30 minutes and then transferred onto the Millipore MultiScreen GF/B Plate coated with 0.5% (w/v) Polyethyleneimine. The filter plate was washed with wash buffer contained 50 mM Tris pH 7.4 for 2 times, 300 microliter each time. The residual isotope was detected by Hidex CHAMELEON V micro-beta counter and the IC50 value of each compound binding to GCGR was calculated with non-linear regression.

Test [1] has as its target T2, glucagon receptor (GCGR) overexpressed CHO-K1 cells or human primary hepatocytes (Homo sapiens, UniProt P47871).
T2 construct: expressed in transfected cells; host or cells: GCGR overexpressed CHO-K1 cells or human primary hepatocytes (endogenous receptor)
The test is described as follows: Glucagon cAMP inhibition assay (Cisbio cAMP Dynamic 2 HTRF). It counts as cell-based. As for the experimental part: Glucagon cAMP Inhibition Assay
Downstream secondary messenger cAMP induced by glucagon was detected by Cisbio cAMP Dynamic 2 kit. Testing compounds were each prepared as a dimethyl sulfoxide (DMSO) solution at the concentration of 10 mM. To evaluate the potency of compounds in inhibiting the cAMP production, glucagon receptor (GCGR) overexpressed CHO-K1 cells or human primary hepatocytes were treated with compounds with a serial dilution. The cells were re-suspended in Hank's Balanced Salt solution (HBSS) contained 0.1% (w/v) bovine serum albumin and 800 nM 3-isobutyl-1-methylxanthine (IBMX) and seeded into low volume, 384 wells white plate. The diluted compounds were then added into the plate for 30 minutes pre-incubation where the final DMSO concentration was 1%. The cells were stimulated with glucagon at the concentration equaled to EC50 (an indicium of the concentration of a drug that gives half-maximal response) for 30 minutes at room temperature. After incubation, lysis buffer contain cAMP antibody and fluorescence acceptor were added into each well for additional 60 minutes incubation. Results were recorded by Molecular Devices SpectraMax Paradigm with the HTRF Detection Cartridges and the IC50 value of each compound in inhibiting the cAMP production was calculated with non-linear regression based on the amount of cAMP production.
(In general: TR-FRET usually uses a lanthanide donor and a delayed reading to cut background.)

Where [2] appears, read: competition with I125-glucagon 0.0625 nM, membrane fractions of GCGR overexpressed CHO-K1 cells.
Where [3] appears, read: inhibition of glucagon (EC50 concentration) induced cAMP production.

Structures are written as SMILES. Where two headings read alike, the source gives them in different places. Where only a bound is given, the exact number is not on record here.

T2 sequence (P47871 26-477): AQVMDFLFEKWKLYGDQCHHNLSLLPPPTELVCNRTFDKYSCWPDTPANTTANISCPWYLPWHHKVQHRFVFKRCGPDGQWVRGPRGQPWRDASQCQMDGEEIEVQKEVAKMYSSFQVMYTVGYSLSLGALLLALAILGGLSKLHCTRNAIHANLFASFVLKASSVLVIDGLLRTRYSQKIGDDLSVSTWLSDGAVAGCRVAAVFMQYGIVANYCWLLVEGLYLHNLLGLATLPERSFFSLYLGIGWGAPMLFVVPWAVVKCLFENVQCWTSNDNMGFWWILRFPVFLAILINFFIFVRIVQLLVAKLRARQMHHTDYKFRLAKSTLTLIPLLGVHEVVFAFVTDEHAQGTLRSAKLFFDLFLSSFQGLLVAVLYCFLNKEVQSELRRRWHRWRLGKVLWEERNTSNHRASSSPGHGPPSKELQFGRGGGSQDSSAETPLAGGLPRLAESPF
T1 sequence (P47871 26-477): as above

Compound `CC(C)[C@@H](COc1ccc(-c2ccc(Cl)cc2Cl)c(F)c1)Nc1ccc(C(=O)NCCC(=O)O)cc1` [Compound 8-9, (S)-3-(4-((1-((2′,4′-dichloro-2-fluoro-[1,1′-biphenyl]-4-yl)oxy)-3-methylbutan-2-yl)amino)benzamido)propanoic Acid] had a half-inhibitory concentration (IC50) on glucagon receptor (GCGR) (setting [2]) of 0.145 µM. The “IC50 cAMP” value in test [1] (setting [3]) was 0.365 µM.

Turning to `CC(C)C[C@@H](COc1ccc(-c2cc3ccccc3o2)c(F)c1)Nc1ccc(C(=O)NCCC(=O)O)cc1` [Compound 8-20, (S)-3-(4-((1-(4-(benzofuran-2-yl)-3-fluorophenoxy)-4-methylpentan-2-yl)amino)benzamido)propanoic Acid], the IC50 at glucagon receptor (GCGR) (setting [2]) was determined as 0.083 µM. The “IC50 cAMP” value in test [1] (setting [3]) was 0.234 µM.

In turn, `CC(C)[C@@H](COc1ccc(-c2cc3ccccc3o2)cc1)Nc1ccc(C(=O)NCCC(=O)O)cn1` [Compound 4-2, (S)-3-(6-((1-(4-(benzofuran-2-yl)phenoxy)-3-methylbutan-2-yl)amino)nicotinamido)propanoic Acid] gave an IC50 at glucagon receptor (GCGR) (setting [2]) of 0.09 µM. In test [1] (setting [3]), the “IC50 cAMP” value came to 0.1213 µM.

`CC(C)[C@@H](COc1nnc(-c2ccc(C(F)(F)F)cc2)o1)Nc1ccc(C(=O)NCCC(=O)O)cc1` [Compound 22-13, (S)-3-(4-((3-methyl-1-((5-(4-(trifluoromethyl)phenyl)-1,3,4-oxadiazol-2-yl)oxy)butan-2-yl)amino)benzamido)propanoic Acid] came in with an IC50 at glucagon receptor (GCGR) greater than 30 µM. Moreover, the “IC50 cAMP” value in test [1] was greater than 30 µM.

The compound `CC(C)COC[C@@H](Cc1ccc(-c2ccc(C(F)(F)F)cc2)cc1)Nc1ccc(C(=O)NCCC(=O)O)cc1` [Compound 19-18] returned a concentration for half-maximal inhibition (IC50) on glucagon receptor (GCGR) of 0.688 µM. In addition, the “IC50 cAMP” value in test [1] was found to be 0.9168 µM.

On to `CCOC(=O)CCNC(=O)c1ccc(N[C@@H](Cc2ccccc2)C(=O)Nc2ccc(-c3cc4ccccc4o3)cc2)cc1` [Compound 23-7, Ethyl (S)-3-(4-((1-((4-(benzofuran-2-yl)phenyl)amino)-1-oxo-3-phenylpropan-2-yl)amino)benzamido)propanoate], for which, at glucagon receptor (GCGR), the IC50 stood at 4.27 µM. The “IC50 cAMP” value in test [1] came out at 0.0643 µM.

On glucagon receptor (GCGR), `CC[C@H](C)[C@@H](COc1nnc(-c2cc3ccccc3o2)o1)Nc1ccc(C(=O)NCCC(=O)O)cc1` [Compound 22-7, 3-(4-(((2S,3 S)-1-((5-(benzofuran-2-yl)-1,3,4-oxadiazol-2-yl)oxy)-3-methylpentan-2-yl)amino)benzamido)propanoic Acid] showed an IC50 greater than 30 µM. In addition, the “IC50 cAMP” value in test [1] was greater than 30 µM.

Take `CC(C)[C@@H](COc1ccc(-c2ccc(C(F)(F)F)cc2F)cc1)Nc1ccc(C(=O)NCCS(=O)(=O)O)cc1` [Compound 1-33, (S)-2-(4-((1-((2′-fluoro-4′-(trifluoromethyl)-[1,1′-biphenyl]-4-yl)oxy)-3-methylbutan-2-yl)amino)benzamido)ethane-1-sulfonic Acid]: at glucagon receptor (GCGR) (setting [2]), the IC50 came out at 1.9 µM. In test [1] (setting [3]), the “IC50 cAMP” value was found to be 3.767 µM.

`CC(C)C[C@@H](COc1ccc(-c2ccc(C(F)(F)F)cc2)cn1)Nc1ccc(C(=O)NCCC(=O)O)cc1` [Compound 15-11, (S)-3-(4-((4-methyl-1-((5-(4-(trifluoromethyl)phenyl)pyridin-2-yl)oxy)pentan-2-yl)amino)benzamido)propanoic Acid]: at glucagon receptor (GCGR), the IC50 turned out to be 0.21 µM. In addition, the “IC50 cAMP” value in test [1] came to 0.2847 µM.

`CC[C@H](C)[C@@H](COc1ccc(-c2ccc(Cl)cc2Cl)c(C)n1)Nc1ccc(C(=O)NCCC(=O)O)cc1` [Compound 18-5, 3-(4-(((2S,3S)-1-((5-(2,4-dichlorophenyl)-6-methylpyridin-2-yl)oxy)-3-methylpentan-2-yl)amino)benzamido)propanoic Acid] displayed an IC50 at glucagon receptor (GCGR) of 0.165 µM. Besides, in test [1], the “IC50 cAMP” value came to 0.151 µM.

Consider `CCCCC[C@H](Cc1ccc(-c2cc3ccccc3o2)cc1)Nc1ccc(C(=O)NCCC(=O)O)cc1` [Compound 19-6, (R)-3-(4-((1-(4-(benzofuran-2-yl)phenyl)heptan-2-yl)amino)benzamido)propanoic Acid], for which, at glucagon receptor (GCGR), the IC50 is 0.158 µM. Further, the “IC50 cAMP” value in test [1] was determined as 0.632 µM.

Turning to `CC(C)[C@@H](COc1ccc(-c2ccc(C(F)(F)F)cc2Cl)c(Cl)c1)Nc1ccc(C(=O)NCc2nnn[nH]2)cc1` [Compound 3-3, (S)—N-((1H-tetrazol-5-yl)methyl)-4-((1-((2,2′-dichloro-4′-(trifluoromethyl)-[1,1′-biphenyl]-4-yl)oxy)-3-methylbutan-2-yl)amino)benzamide], the half-inhibitory concentration (IC50) at glucagon receptor (GCGR) (setting [2]) is 0.086 µM. The “IC50 cAMP” value in test [1] (setting [3]) amounted to 1.25 µM.

`CCCOC[C@H](Cc1ccc(-c2ccc(OC(F)(F)F)cc2)cc1)Nc1ccc(C(=O)NCCC(=O)O)cc1` [Compound 19-24, (S)-3-(4-((1-propoxy-3-(4′-(trifluoromethoxy)-[1,1′-biphenyl]-4-yl)propan-2-yl)amino)benzamido)propanoic Acid]: the IC50 on glucagon receptor (GCGR) is 0.512 µM. In test [1], the “IC50 cAMP” value worked out at 0.6304 µM.

`CC(C)[C@@H](COc1cc(F)c(-c2ccc(C(F)(F)F)cc2F)c(F)c1)Nc1ccc(C(=O)NCCC(=O)O)cc1` [Compound 7-4, (S)-3-(4-((3-methyl-1-((2,2′,6-trifluoro-4′-(trifluoromethyl)-[1,1′-biphenyl]-4-yl)oxy)butan-2-yl)amino)benzamido)propanoic Acid] yielded an IC50 on glucagon receptor (GCGR) (setting [2]) of 0.182 µM. The “IC50 cAMP” value in test [1] (setting [3]) came to 0.165 µM.

On to `CCCC[C@@H](COc1ccc(-c2nnc(C(F)(F)F)o2)c(F)c1)Nc1ccc(C(=O)NCCC(=O)O)cc1` [Compound 8-24, (S)-3-(4-((1-(3-fluoro-4-(5-(trifluoromethyl)-1,3,4-oxadiazol-2-yl)phenoxy)hexan-2-yl)amino)benzamido)propanoic Acid], for which the IC50 on glucagon receptor (GCGR) (setting [2]) was determined as 0.366 µM. Also, the “IC50 cAMP” value in test [1] (setting [3]) was 2.701 µM.

For the compound `CC(C)COC[C@H](Cc1ccc(-c2ccc(C(F)(F)F)cc2)cc1)Nc1ccc(C(=O)NCCC(=O)O)cc1` [Compound 19-34, (S)-3-(4-((1-isobutoxy-3-(4′-(trifluoromethyl)-[1,1′-biphenyl]-4-yl)propan-2-yl)amino)benzamido)propanoic Acid], on glucagon receptor (GCGR), the IC50 amounted to 0.38 µM. Moreover, in test [1], the “IC50 cAMP” value came to 0.487 µM.

At glucagon receptor (GCGR) (setting [2]), `CC[C@H](C)[C@@H](COc1cc(C)c(-c2ccc(OC(F)(F)F)cc2)c(C)c1)Nc1ccc(C(=O)NCCC(=O)O)cc1` [Compound 2-8, 3-(4-(((2S,3S)-1-((2,6-dimethyl-4′-(trifluoromethoxy)-[1,1′-biphenyl]-4-yl)oxy)-3-methylpentan-2-yl)amino)benzamido)propanoic Acid] returned an IC50 of 0.627 µM. For the same compound, in test [1] (setting [3]), the “IC50 cAMP” value turned out to be 0.602 µM.

For the compound `CC(C)C[C@H](Nc1ccc(C(=O)NCCC(=O)O)cc1)C(=O)Nc1ccc(-c2cc3ccccc3[nH]2)cc1` [Compound 23-29, (S)-3-(4-((1-((4-(1H-indol-2-yl)phenyl)amino)-4-methyl-1-oxopentan-2-yl)amino)benzamido)propanoic Acid], the IC50 on glucagon receptor (GCGR) was 0.141 µM. In test [1] (uM), the “IC50 cAMP” value is greater than 10 µM.

Compound `CC(C)[C@@H](COc1nnc(-c2ccc(OC(F)(F)F)cc2)o1)Nc1ccc(C(=O)NCCC(=O)O)cc1` [Compound 22-15, (S)-3-(4-((3-methyl-1-((5-(4-(trifluoromethoxy)phenyl)-1,3,4-oxadiazol-2-yl)oxy)butan-2-yl)amino)benzamido)propanoic Acid] registered a 50% inhibitory concentration (IC50) at glucagon receptor (GCGR) greater than 30 µM. Besides, the “IC50 cAMP” value in test [1] was greater than 30 µM.

Turning to `CC(C)C[C@@H](COc1cc(F)c(-c2cc(Cl)cc(Cl)c2)c(F)c1)Nc1ccc(C(=O)NCCC(=O)O)cc1` [Compound 7-9, (S)-3-(4-((1-((3′,5′-dichloro-2,6-difluoro-[1,1′-biphenyl]-4-yl)oxy)-4-methylpentan-2-yl)amino)benzamido)propanoic Acid], the IC50 on glucagon receptor (GCGR) (setting [2]) came out at 0.262 µM. The “IC50 cAMP” value in test [1] (setting [3]) stood at 0.816 µM.

Take `CCOC(=O)CCNC(=O)c1ccc(N[C@@H](Cc2cccc3ccccc23)C(=O)Nc2ccc(-c3cc4ccccc4o3)cc2)cc1` [Compound 23-13, Ethyl (S)-3-(4-((1-((4-(benzofuran-2-yl)phenyl)amino)-3-(naphthalen-1-yl)-1-oxopropan-2-yl)amino)benzamido)propanoate]: the IC50 at glucagon receptor (GCGR) (uM) is greater than 10 µM. Moreover, in test [1] (uM), the “IC50 cAMP” value was greater than 10 µM.

In the case of `CC(C)COC[C@@H](Cc1ccc(-c2cc3ccccc3o2)cc1)Nc1ccc(C(=O)NCCC(=O)O)cc1` [Compound 19-21, (R)-3-(4-((1-(4-(benzofuran-2-yl)phenyl)-3-isobutoxypropan-2-yl)amino)benzamido)propanoic Acid], the IC50 on glucagon receptor (GCGR) turned out to be 0.269 µM. Also, the “IC50 cAMP” value in test [1] was determined as 0.4373 µM.
